The target of experiment [1] is T1, serotonin (5-HT) reuptake (Rattus norvegicus, UniProt P31652).
T1 construct: synaptosomes are freshly isolated from areas of the rat brain; from tissue; host or cells: rat brain synaptosomes (P2 fraction)
Briefly: Inhibition of serotonin (5HT) reuptake in synaptosomes from rat brain. The class given is biochemical. The note with it: test concentration of 10 μM. In outline: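 Freshly isolated rat brain synaptosomes (P2 fraction) used for 5-HT reuptake. Test compound at 10 μM, activity given as % inhibition.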

A further experiment has as its target T2, human μ opiate receptor (Homo sapiens, UniProt P35372).
T2 construct: purchased PerkinElmer Life Sciences, Zaventem, Belgium RB-HOM; host or cells: CHO-K1 cells (membrane preparation)
Briefly: Affinity for the human μ opiate receptor ([3H]-naloxone displacement, CHO-K1 receptor membrane preparation, SPA). Type of experiment: binding. The note with it: test concentration of 1 μM. In outline: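 Scintillation proximity binding on human μ receptor membranes from CHO-K1 cells used 1 nmol/l [3H]-naloxone over 90 min at room temperature in 50 mmol/l Tris-HCl, 0.06% BSA. Percent inhibition was recorded at 1 μM.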

T2 sequence (P35372 whole entry): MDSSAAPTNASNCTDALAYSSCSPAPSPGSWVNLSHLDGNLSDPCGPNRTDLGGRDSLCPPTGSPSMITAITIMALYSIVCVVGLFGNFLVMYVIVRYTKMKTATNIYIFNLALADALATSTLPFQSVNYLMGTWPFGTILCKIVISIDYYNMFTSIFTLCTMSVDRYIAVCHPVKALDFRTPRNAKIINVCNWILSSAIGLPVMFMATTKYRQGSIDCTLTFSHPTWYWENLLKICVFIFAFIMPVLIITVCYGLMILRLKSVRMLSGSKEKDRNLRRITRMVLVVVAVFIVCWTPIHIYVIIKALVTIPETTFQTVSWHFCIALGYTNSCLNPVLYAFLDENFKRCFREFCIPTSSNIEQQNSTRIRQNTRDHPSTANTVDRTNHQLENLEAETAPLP
T1 sequence (P31652 whole entry): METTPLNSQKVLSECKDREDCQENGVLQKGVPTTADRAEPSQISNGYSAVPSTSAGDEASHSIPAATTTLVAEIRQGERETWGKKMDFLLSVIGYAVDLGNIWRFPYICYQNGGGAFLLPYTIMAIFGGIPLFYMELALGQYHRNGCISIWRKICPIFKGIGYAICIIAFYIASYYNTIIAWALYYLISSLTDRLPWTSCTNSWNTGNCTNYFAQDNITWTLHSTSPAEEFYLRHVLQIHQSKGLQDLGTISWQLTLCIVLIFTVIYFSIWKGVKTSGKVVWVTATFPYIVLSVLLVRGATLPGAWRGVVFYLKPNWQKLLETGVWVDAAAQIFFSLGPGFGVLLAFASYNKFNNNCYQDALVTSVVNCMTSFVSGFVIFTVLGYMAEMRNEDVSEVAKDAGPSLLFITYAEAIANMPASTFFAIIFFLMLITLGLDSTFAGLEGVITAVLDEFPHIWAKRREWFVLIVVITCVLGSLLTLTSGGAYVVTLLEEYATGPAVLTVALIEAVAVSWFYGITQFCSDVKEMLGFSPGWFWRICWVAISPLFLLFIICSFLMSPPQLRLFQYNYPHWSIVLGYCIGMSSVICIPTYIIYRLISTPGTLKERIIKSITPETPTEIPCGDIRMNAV

Consider `COc1ccc(S(=O)(=O)N(C)CCOCC(=O)NC2CCC(C(c3cccc(F)c3)N(C)C)CC2)cc1OC` (stereo not drawn) [Example 401], for which the “5-HT (inhibition of reuptake of serotonin, % inhibition)” value in experiment [1] stood at 99%. In addition, at human μ opiate receptor, the “μ (binding on the μ opioid receptor, % inhibition)” value is given as 49%.

Take `Cc1ccc(S(=O)(=O)N2CCC(OCC(=O)NCC3CCC(C(c4ccc(F)cc4)N(C)C)CC3)C2)cc1` (stereo not drawn) [Example 447]: the “5-HT (inhibition of reuptake of serotonin, % inhibition)” value in experiment [1] was determined as 95%. For the same molecule, at human μ opiate receptor, the “μ (binding on the μ opioid receptor, % inhibition)” value is 44%.

As for `CN(C)C(c1ccc(Cl)cc1)C1CCC(CCNC(=O)COC2CCN(S(=O)(=O)c3cccc(C(F)(F)F)c3)C2)CC1` (stereo not drawn) [Example 431], the “5-HT (inhibition of reuptake of serotonin, % inhibition)” value in experiment [1] stood at 93%. Also, the “μ (binding on the μ opioid receptor, % inhibition)” value at human μ opiate receptor is given as 45%.

(Values after patent US8106055B2, “Substituted amide compounds” (Gruenenthal GmbH, priority 2007, dated 2012).)
